# Biological target: T1, furin (Homo sapiens, UniProt P09958)
# T1 construct: recombinant soluble human furin
# Assay: fluorogenic protease assay with Pyr-RTKR-AMC substrate
# Format: biochemical
# T1 sequence (P09958 108-715): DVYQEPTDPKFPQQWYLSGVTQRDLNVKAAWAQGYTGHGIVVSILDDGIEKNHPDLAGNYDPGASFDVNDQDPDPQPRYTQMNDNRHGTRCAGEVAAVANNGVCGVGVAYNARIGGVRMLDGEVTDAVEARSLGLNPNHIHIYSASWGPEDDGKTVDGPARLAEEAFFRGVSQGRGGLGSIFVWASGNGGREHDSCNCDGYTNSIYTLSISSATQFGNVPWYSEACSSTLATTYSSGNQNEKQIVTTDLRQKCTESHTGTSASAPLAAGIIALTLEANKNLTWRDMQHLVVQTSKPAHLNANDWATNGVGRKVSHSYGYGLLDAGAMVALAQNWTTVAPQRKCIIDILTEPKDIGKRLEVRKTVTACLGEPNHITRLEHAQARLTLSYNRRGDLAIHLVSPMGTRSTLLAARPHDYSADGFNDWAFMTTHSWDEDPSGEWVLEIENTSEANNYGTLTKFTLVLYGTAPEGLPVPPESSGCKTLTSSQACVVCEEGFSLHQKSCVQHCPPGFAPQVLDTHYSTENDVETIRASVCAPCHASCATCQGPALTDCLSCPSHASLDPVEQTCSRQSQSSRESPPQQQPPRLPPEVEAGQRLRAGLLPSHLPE
compound,measurement,value
"O=c1c(O)c(-c2ccc(O)c(O)c2)oc2cc(O)cc(O)c12 [QC, quercetin]",IC50,~116 µM
